This note sets out measurements from patent publication US6248309A, “Gums containing antimicrobial agents” (priority 1999, dated 2001).

Holding throughout (experiment): MIC of agents alone and in two-agent combination (Example 1)
What all share (conditions): concentration of TB1 (agent A)

Experiment [1] deals with Actinomyces viscosus (AV). The format is cell-based, Actinomyces viscosus ATCC 19246. The protocol: (§1) The following example illustrates how the MIC of individual antimicrobial agents that are combined were determined and also illustrates how the MIC of the antimicrobial agents in combination were determined.
(§2) A microtiter plate was used to dilute the antimicrobial agents to varying concentrations in order to determine the MIC of those antimicrobial agents alone and the MIC of the agents when combined.
(§3) A bacterial culture was incubated at 37° C. Prior to the dilution of the antimicrobial agents as described below, the bacterial culture was spun down at 2,000 rpm into a pellet and resuspended in a solution of buffered phosphate. The innoculum was normalized with a spectrophotometer to an optical density at 550 nanometers of between 0.180-0.220 (equivalent to 5.0×10^7 colony forming units, CFU per milliliter). The innoculum was set aside until the completion of the antimicrobial agent dilution. […]
(§4) Following 48 hours of incubation, the incubated plate was read for microbial growth with a spectrophotometer by optical density (OD). The well containing the lowest dilution achievable for each agent with a spectrophotometer reading below 0.05 OD (i.e., no detectable microbial growth) was considered representative for the combination. The MIC for each agent in the combination was determined by accounting for the starting stock solution concentration and the resulting dilutions in the 96-well plate. […]

The test system of experiment [2] is Streptococcus mutans (SM). It counts as cell-based, Streptococcus mutans ATCC 25175. The protocol:
as §1, §2, §3, §4

For experiment [3], the system named is Porphyromonas gingivalis (PG). The format is cell-based, Porphyromonas gingivalis ATCC 33277. How it is done:
as §1, §2, §3, §4

Experiment [4] has as its system Streptococcus sanguis (SS). It counts as cell-based, Streptococcus sanguis ATCC 49295. How it is done:
as §1, §2, §3, §4

In experiment [5] the test system is Fusobacterium nucleatum (FN). The format is cell-based, Fusobacterium nucleatum ATCC 10933. The protocol: as §1, §2, §3, §4

Take N-cocamidopropyl-dimethylglycine [TB1]: the “MIC of Cocamidopropyl Dimethylglycine alone and when combined with Agent B” value in experiment [1] amounted to 28.9 µg/mL; in experiment [2] it was 22.8 µg/mL; in experiment [3], 16.8 µg/mL; in experiment [4] it was 30.2 µg/mL; in experiment [5], 45.4 µg/mL.
